From ChEMBL document CHEMBL1157294, “Rautandiols A and B, pterocarpans and cytotoxic constituents from Neorautanenia mitis” (J Nat Prod, 2006)
≈ marks a conversion by molar mass, not a printed value.

What was measured:
A549 = assay: Cytotoxicity against human A549 cells after 3 days by SRB assay; type: functional, cell-based; details: A549, 72 h
MCF7 = assay: Cytotoxicity against human MCF7 cells after 3 days by SRB assay; type: functional, cell-based; details: MCF7, 72 h

Row | Compound | IC50 (A549) [µg/mL] | IC50 (MCF7) [µg/mL]
1 | C=C(C)[C@H]1Cc2c(ccc3c(=O)c4c(oc23)COc2cc(OC)c(OC)cc2-4)O1 [DEHYDROROTENONE] | > 5 | > 5
2 | COc1cc(OC)c(-c2coc3cc4occc4cc3c2=O)cc1OC [ISOELLIPTOL] | 1.6 (≈ 4.54 µM) | 0.8 (≈ 2.27 µM)
3 | c1cc2cc3c(cc2o1)OC[C@H]1c2cc4c(cc2O[C@@H]31)OCO4 [NEODULIN] | > 5 | > 5
4 | COc1cc2c(cc1-c1cc3cc4ccoc4cc3oc1=O)OCO2 [PACHYRRIZINE] | > 5 | 3.6 (≈ 10.7 µM)
5 | CC1(C)Oc2cc3c(cc2CC1O)[C@@H]1Oc2cc(O)ccc2[C@@H]1CO3 (some centres undefined) [RAUTANDIOL A] | > 5 | > 5
6 | CC(C)(O)C1Cc2cc3c(cc2O1)OC[C@H]1c2ccc(O)cc2O[C@@H]31 (some centres undefined) [RAUTANDIOL B] | > 5 | > 5
7 | C=C(C)[C@H]1Cc2c(ccc3c2O[C@@H]2COc4cc(OC)c(OC)cc4[C@@H]2C3=O)O1 [ROTENONE] | 0.04 (≈ 0.101 µM) | 0.008 (≈ 0.0203 µM)
